Calls of active or inactive are those of the source. No cut-off for these calls is given here.
Experiments:
H9c2 [1] = experiment: Cytoprotective activity against OGD-induced myocardial ischemic injury in rat H9c2 cells assessed as cell viability at 5 uM preincubated for 12 hrs followed by exposure to OGD condition for 3 hrs by CCK8 assay (reference value: 49.23 to 50.05 %); format: functional; conditions: time 15 hrs, read-out: Activity
H9c2 [2] = experiment: Cytoprotective activity against OGD-induced myocardial ischemic injury in rat H9c2 cells assessed as cell viability at 50 uM preincubated for 12 hrs followed by exposure to OGD condition for 3 hrs by CCK8 assay (reference value: 49.23 to 50.05 %); format: functional; conditions: time 15 hrs, read-out: Activity
[3] = Metabolic stability in human liver microsomes assessed as intrinsic clearance measured for 5 to 60 mins in presence of NADPH by LC-MS/MS analysis; format: ADME, Microsome; conditions: time 5-60 min, read-out: CLH
[4] = Metabolic stability in mouse liver microsomes assessed as half life measured for 5 to 60 mins in presence of NADPH by LC-MS/MS analysis; format: ADME, Microsome; conditions: time 5-60 min
[5] = Metabolic stability in mouse liver microsomes assessed as intrinsic clearance measured for 5 to 60 mins in presence of NADPH by LC-MS/MS analysis; format: ADME, Microsome; conditions: time 5-60 min, read-out: CLH
Cardiac muscle cell [6] = experiment: Cytoprotective activity against OGD-induced myocardial ischemic injury in neonatal rat primary cardiomyocytes assessed as decrease in cellular damage preincubated for 12 hrs followed by exposure to OGD condition for 3 hrs; format: functional, cell-based; conditions: time 15.0 hrs
H9c2 [7] = experiment: Cytoprotective activity against OGD-induced myocardial ischemic injury in rat H9c2 cells assessed as decrease in LDH level at 5 to 50 uM preincubated for 12 hrs followed by exposure to OGD condition for 3 hrs by UV absorption analysis; format: functional, cell-based; conditions: dose 5-50 µM, time 15.0 hrs
H9c2 [8] = experiment: Cytoprotective activity against OGD-induced myocardial ischemic injury in rat H9c2 cells assessed as decrease in ROS level at 5 to 50 uM preincubated for 12 hrs followed by exposure to OGD condition for 3 hrs by DCFH-DA probe based analysis; format: functional, cell-based; conditions: dose 5-50 µM, time 15.0 hrs
Mus musculus [9] = experiment: Cardioprotective activity in ISO-induced heart failure C57BL/6J mouse assessed as […] in ejection fraction in heart at 20 mg/kg/day, po for 14 days by echocardiography; format: functional, organism-based; conditions: time 14.0 day
Mus musculus [10] = experiment: Cardioprotective activity in ISO-induced heart failure C57BL/6J mouse assessed as […] in fractional shortening in heart at 20 mg/kg/day, po for 14 days by echocardiography; format: functional, organism-based; conditions: time 14.0 day
Mus musculus [11] = experiment: Inhibition of cardiomyocyte hypertrophy in ISO-induced heart failure C57BL/6J mouse at 20 mg/kg/day, po for 14 days; format: functional, organism-based; conditions: time 14.0 day
Mus musculus [12] = experiment: Cardioprotective activity in ISO-induced heart failure C57BL/6J mouse assessed as ejection fraction in heart at 20 mg/kg/day, po for 14 days by echocardiography (reference value: 49.55 +/- 2.41 %); format: functional; conditions: time 14 day
H9c2 [13] = experiment: Cytoprotective activity against OGD-induced myocardial ischemic injury in rat H9c2 cells assessed as decrease in cell death at 5 to 50 uM preincubated for 12 hrs followed by exposure to OGD condition for 3 hrs by crystal violet staining based analysis; format: functional; conditions: dose 5-50 µM, time 15.0 hrs
Cardiac muscle cell [14] = experiment: Cytoprotective activity against OGD-induced myocardial ischemic injury in neonatal rat primary cardiomyocytes assessed as decrease in cellular damage at 1 uM preincubated for 12 hrs followed by exposure to OGD condition for 3 hrs; format: functional, cell-based; conditions: time 15.0 hrs
Mus musculus [15] = experiment: Cardioprotective activity in ISO-induced heart failure C57BL/6J mouse assessed as fractional shortening in heart at 20 mg/kg/day, po for 14 days by echocardiography (reference value: 24.49 +/- 1.49 %); format: functional; conditions: time 14 day
Mus musculus [16] = experiment: Cardioprotective activity in ISO-induced heart failure C57BL/6J mouse assessed as ejection fraction in heart at 5 mg/kg/day, po for 14 days by echocardiography (reference value: 49.55 +/- 2.41 %); format: functional; conditions: time 14 day
Mus musculus [17] = experiment: Cardioprotective activity in ISO-induced heart failure C57BL/6J mouse assessed as fractional shortening in heart at 5 mg/kg/day, po for 14 days by echocardiography (reference value: 24.49 +/- 1.49 %); format: functional; conditions: time 14 day
Mus musculus [18] = experiment: Improvement in motor ability in ISO-induced heart failure C57BL/6J mouse assessed as increase in grip strength at 5 to 20 mg/kg/day, po for 14 days; format: functional, organism-based; conditions: dose 5-20 mg/kg/day, time 14.0 day
Mus musculus [19] = experiment: Improvement in motor ability in ISO-induced heart failure C57BL/6J mouse assessed as increase in time of remote motion with rotarod at 5 to 20 mg/kg/day, po for 14 days; format: functional, organism-based; conditions: dose 5-20 mg/kg/day, time 14.0 day
Mus musculus [20] = experiment: Inhibition of cardiomyocyte hypertrophy in ISO-induced heart failure C57BL/6J mouse at 5 to 20 mg/kg/day, po for 14 days; format: functional, organism-based; conditions: dose 5-20 mg/kg/day, time 14.0 day
Mus musculus [21] = experiment: Inhibition of cardiac fibrosis in ISO-induced heart failure C57BL/6J mouse at 5 to 20 mg/kg/day, po for 14 days; format: functional, organism-based; conditions: dose 5-20 mg/kg/day, time 14.0 day
H9c2 [22] = experiment: Cytoprotective activity against OGD-induced myocardial ischemic injury in rat H9c2 cells assessed as cell viability at 100 uM preincubated for 12 hrs followed by exposure to OGD condition for 3 hrs by CCK8 assay (reference value: 49.23 to 50.05 %); format: functional; conditions: time 15 hrs, read-out: Activity

| SMILES | viability at 5 µM (H9c2 [1]) | viability at 50 µM (H9c2 [2]) | further results |
| --- | --- | --- | --- |
| OC[C@H]1O[C@@H](O[C@@H]2OC=C[C@H]3[C@H](O)[C@@H]4O[C@]4(COc4ccc(F)cc4)[C@@H]23)[C@H](O)[C@@H](O)[C@@H]1O | 61.7% | 64.6% | – |
| COc1ccc(OC[C@]23O[C@H]2[C@@H](O)[C@@H]2C=CO[C@@H](O[C@@H]4O[C@H](CO)[C@@H](O)[C@H](O)[C@H]4O)[C@@H]23)cc1 | 62.5% | 57.5% | – |
| O=C(NC[C@]12O[C@H]1[C@@H](O)[C@@H]1C=CO[C@@H](O[C@@H]3O[C@H](CO)[C@@H](O)[C@H](O)[C@H]3O)[C@@H]12)c1ccncc1 | 54.2% | 57.5% | – |
| COc1cc(OC[C@]23O[C@H]2[C@@H](O)[C@@H]2C=CO[C@@H](O[C@@H]4O[C@H](CO)[C@@H](O)[C@H](O)[C@H]4O)[C@@H]23)cc(OC)c1OC | 63.9% | 55.1% | – |
| OC[C@H]1O[C@@H](O[C@@H]2OC=C[C@H]3[C@H](O)[C@@H]4O[C@]4(COc4ccc(C5CCCC5)cc4)[C@@H]23)[C@H](O)[C@@H](O)[C@@H]1O | 64.5% | 60.8% | – |
| OC[C@H]1O[C@@H](O[C@@H]2OC=C[C@H]3[C@H](O)[C@@H]4O[C@]4(COc4cc(C(F)(F)F)cc(C(F)(F)F)c4)[C@@H]23)[C@H](O)[C@@H](O)[C@@H]1O | 56.1% | 50.1% | – |
| COc1ccc(CC(=O)NC[C@]23O[C@H]2[C@@H](O)[C@@H]2C=CO[C@@H](O[C@@H]4O[C@H](CO)[C@@H](O)[C@H](O)[C@H]4O)[C@@H]23)cc1OC | 60.9% | 59.4% | – |
| O=C(O)Cc1ccccc1Nc1c(Cl)cccc1Cl [DICLOFENAC] | – | – | CLint scaled [3]: 202 mL/min/kg; half-life [4]: 1.1 h; CLint scaled [5]: 82.9 mL/min/kg |
| OC[C@H]1O[C@@H](O[C@@H]2OC=C[C@H]3[C@H](O)[C@@H]4O[C@]4(CO)[C@@H]23)[C@H](O)[C@@H](O)[C@@H]1O [CATALPOL] | 50.6% | 50.7% | Activity (Cardiac muscle cell [6]): Active; Activity (H9c2 [7]): Active; Activity (H9c2 [8]): Active; Activity (Mus musculus [9]): Active; Activity (Mus musculus [10]): Active; inhibition (Mus musculus [11]): Active |
| OC[C@H]1O[C@@H](O[C@@H]2OC=C[C@H]3[C@H](O)[C@@H]4O[C@]4(COc4ccc5ccoc5c4)[C@@H]23)[C@H](O)[C@@H](O)[C@@H]1O | 56.7% | 57% | – |
| O=C(NC[C@]12O[C@H]1[C@@H](O)[C@@H]1C=CO[C@@H](O[C@@H]3O[C@H](CO)[C@@H](O)[C@H](O)[C@H]3O)[C@@H]12)c1ccc2occc2c1 | 59.1% | 58% | – |
| COc1ccc(/C=C/C(=O)NC[C@]23O[C@H]2[C@@H](O)[C@@H]2C=CO[C@@H](O[C@@H]4O[C@H](CO)[C@@H](O)[C@H](O)[C@H]4O)[C@@H]23)cc1OC | 56.6% | 56.7% | – |
| CC(C)(C)c1ccc(C(=O)NC[C@]23O[C@H]2[C@@H](O)[C@@H]2C=CO[C@@H](O[C@@H]4O[C@H](CO)[C@@H](O)[C@H](O)[C@H]4O)[C@@H]23)cc1 | 60.7% | 70.9% | Activity (Mus musculus [12]): 53.73%; Activity (H9c2 [13]): Active; Exhibited Superior Protective Efficacy Than Catal-Pol; Activity (Cardiac muscle cell [14]): Active; Activity (H9c2 [7]): Active; Activity (H9c2 [8]): Active; Activity (Mus musculus [15]): 27.5%; Activity (Mus musculus [16]): 55.41%; Activity (Mus musculus [17]): 28.23%; Activity (Mus musculus [18]): Active; Activity (Mus musculus [19]): Active; inhibition (Mus musculus [20]): inactive; inhibition (Mus musculus [21]): Active |
| OC[C@H]1O[C@@H](O[C@@H]2OC=C[C@H]3[C@H](O)[C@@H]4O[C@]4(COc4cccc5ccccc45)[C@@H]23)[C@H](O)[C@@H](O)[C@@H]1O | 55.5% | 58.8% | – |
| O=C(NC[C@]12O[C@H]1[C@@H](O)[C@@H]1C=CO[C@@H](O[C@@H]3O[C@H](CO)[C@@H](O)[C@H](O)[C@H]3O)[C@@H]12)c1cccs1 | 54.1% | 60.4% | – |
| O=C(NC[C@]12O[C@H]1[C@@H](O)[C@@H]1C=CO[C@@H](O[C@@H]3O[C@H](CO)[C@@H](O)[C@H](O)[C@H]3O)[C@@H]12)c1cncnc1 | 58% | 57.5% | – |
| OC[C@H]1O[C@@H](O[C@@H]2OC=C[C@H]3[C@H](O)[C@@H]4O[C@]4(COc4cccc5c4CCCC5)[C@@H]23)[C@H](O)[C@@H](O)[C@@H]1O | 54.4% | 55.5% | – |
| O=C(NC[C@]12O[C@H]1[C@@H](O)[C@@H]1C=CO[C@@H](O[C@@H]3O[C@H](CO)[C@@H](O)[C@H](O)[C@H]3O)[C@@H]12)C1CCCCC1 | 60% | 61.3% | – |
| O=C(NC[C@]12O[C@H]1[C@@H](O)[C@@H]1C=CO[C@@H](O[C@@H]3O[C@H](CO)[C@@H](O)[C@H](O)[C@H]3O)[C@@H]12)c1ccccc1 | 63.6% | 70% | Activity (H9c2 [13]): Active; Exhibited Superior Protective Efficacy Than Catal-Pol; Activity (Cardiac muscle cell [14]): Active |
| O=C(/C=C/c1ccccc1)NC[C@]12O[C@H]1[C@@H](O)[C@@H]1C=CO[C@@H](O[C@@H]3O[C@H](CO)[C@@H](O)[C@H](O)[C@H]3O)[C@@H]12 | 57.9% | 61.5% | – |
| OC[C@H]1O[C@@H](O[C@@H]2OC=C[C@H]3[C@H](O)[C@@H]4O[C@]4(COc4ccc(C5CCCCC5)cc4)[C@@H]23)[C@H](O)[C@@H](O)[C@@H]1O | 60.9% | 56.6% | – |
| O=C(NC[C@]12O[C@H]1[C@@H](O)[C@@H]1C=CO[C@@H](O[C@@H]3O[C@H](CO)[C@@H](O)[C@H](O)[C@H]3O)[C@@H]12)c1cccnc1 | 58.2% | 59.6% | – |
| OC[C@H]1O[C@@H](O[C@@H]2OC=C[C@H]3[C@H](O)[C@@H]4O[C@]4(COc4ccccc4)[C@@H]23)[C@H](O)[C@@H](O)[C@@H]1O | 59.1% | 60.5% | – |
| COc1ccc(C(=O)NC[C@]23O[C@H]2[C@@H](O)[C@@H]2C=CO[C@@H](O[C@@H]4O[C@H](CO)[C@@H](O)[C@H](O)[C@H]4O)[C@@H]23)cc1OC | 62.1% | 57.8% | – |
| OC[C@H]1O[C@@H](O[C@@H]2OC=C[C@H]3[C@H](O)[C@@H]4O[C@]4(COc4ccc5c(c4)OCO5)[C@@H]23)[C@H](O)[C@@H](O)[C@@H]1O | 59.6% | 60.7% | – |
| O=C(NCCO[N+](=O)[O-])c1cccnc1 [NICORANDIL] | – | – | viability at 100 µM (H9c2 [22]): 58.6% |
| O=C(NC[C@]12O[C@H]1[C@@H](O)[C@@H]1C=CO[C@@H](O[C@@H]3O[C@H](CO)[C@@H](O)[C@H](O)[C@H]3O)[C@@H]12)c1ccco1 | 58.8% | 55.6% | – |
| OC[C@H]1O[C@@H](O[C@@H]2OC=C[C@H]3[C@H](O)[C@@H]4O[C@]4(COc4ccc(-c5ccccc5)cc4)[C@@H]23)[C@H](O)[C@@H](O)[C@@H]1O | 60% | 53.2% | – |
